Test results as given in US12109176B1, “Effect of glycerol on biofilm forming bacteria and fungi that changes the microbes sensitivity to pro and anti-biofilm non-toxic, non-bonded plasma amino acids and amino acid derivatives” (priority 2023, dated 2024).

Key:
[1] = system: fungal biofilm (C. albicans); experiment: Fungal biofilm inhibition assay; format: cell-based, Candida albicans
Procedure: (§1) Two types of biofilm assays were performed: an inhibition assay and a disruption assay. The inhibition assay assesses the compound's ability to prevent biofilm development, while the disruption assay assesses the compound's ability to break up an existing mature biofilm.
(§2) All bacterial biofilm solutions were prepared in Tryptic Soy Broth (TSB), supplemented with 1% glucose (henceforth referred to as TSB-G). All subsequent procedures were performed in a manner that maintained sterility. A solution of each amino acid or an amino acid derivative to be tested was prepared in weight to volume concentrations ranging from 0.1-5.0%. Amino acids and amino acid derivatives were also tested in combinations. Compound solutions were homogenized with gentle agitation in the dark (4° C., 24 hours) before use.
(§3) 32 Amino acids and 2 amino acid derivatives of the amino acid serine that occur freely in human blood were tested. […] 31 of the 32 amino acids that were tested were the L-Isomers. Glycine has no stereoisomers. The 2 amino acid derivatives, ethanolamine and phosphoethanolamine were also tested. All biofilm assays were performed using 384-well non-tissue culture-treated polystyrene plates. The fungal species tested are as follows: Candida albicans, Candida guilliermondii, Candida parapsilosis, Candida glabrata, Candida tropicalis and Candida dubliniensis. The bacterial species tested are as follows: Staphylococci (standard wild type and methicillin-resistant strain USA300), Escherichia coli, Pseudomonas aeruginosa and Staphylococcus epidermidis.
(§4) Fungal strains were streaked on Yeast Peptone Dextrose (YPD) agar plates and incubated at 30° C. for 48 hours. A single colony from each strain to be tested was inoculated into YPD broth and grown for 12 hours at 30° C., shaking at 225 rpm. […] The cells were allowed to adhere to the plate for 90 minutes at 37° C. with shaking (350 rpm). […] The plate was further incubated for 24 hours at 37° C. with shaking (350 rpm). Media was carefully aspirated and the biofilm was measured by optical density at 600 nm. […] The cells were allowed to adhere to the plate for 90 minutes at 37° C. with shaking (350 rpm). […] The plate was further incubated for 24 hours at 37° C. with shaking (350 rpm). […] The plate was further incubated for 24 hours at 37° C. with shaking (350 rpm). Media was carefully aspirated, and the biofilm was measured by optical density at 600 nm.

[2] = system: fungal biofilm (C. albicans); experiment: Fungal biofilm disruption assay; format: cell-based, Candida albicans
Procedure: as §1, §2, §3, §4

[3] = system: bacterial (S. aureus) biofilm; experiment: Bacterial biofilm inhibition assay; format: cell-based, Staphylococcus aureus
[4] = system: bacterial (S. aureus) biofilm; experiment: Bacterial biofilm disruption assay; format: cell-based, Staphylococcus aureus
Procedure: as §1, §2, §3
(§5) Bacterial strains were streaked on Blood Agar plates (5% sheep blood in Tryptic Soy Broth) and incubated at 37° C. for 24 hours. A single colony from each strain to be tested was inoculated in a TSB broth and grown for 12 hours, at 37° C. with shaking (225 rpm). For the bacterial biofilm inhibition assays, 1 μL of saturated overnight cell culture was added to either 80 μL of TSB-G, or TSB-G supplemented with the amino acid compound solution to be tested, in a 384-well plate. The cells were allowed to adhere to the plate for 60 minutes at 37° C. without shaking. The media was carefully aspirated and 80 μL of TSB-G, or TSB-G supplemented with the amino acid compound solution was added to the plate. The plate was further incubated for 24 hours at 37° C. without shaking. Media was carefully aspirated and the biofilm was measured by optical density at 600 nm. Eight or twelve replicates were performed for each tested condition and the reported values are normalized to the control (TSB-G media only). For the bacterial biofilm disruption assays, 80 µL of TSB-G was added to the plate, along with 1 μL of overnight cell culture. The cells were allowed to adhere to the plate for 60 minutes at 37° C. with no shaking. The media was carefully aspirated and 80 μL of TSB-G was added to the plate. The plate was further incubated for 24 hours at 37° C. with no shaking. Media was carefully aspirated from the mature biofilm and 80 μL of TSB-G, or TSB-G supplemented with the amino acid to be tested, was gently added to the plate. The plate was further incubated for 24 hours at 37° C. without shaking. Media was aspirated and the biofilm was measured by optical density at 600 nm. Twelve replicates were performed for each tested condition and the reported values are normalized to the control (TSB-G media only).

[5] = system: bacterial (S. aureus) biofilm and fungal biofilm (C. albicans); experiment: Biofilm inhibition assay, bacterial and fungal taken together; format: cell-based
[6] = system: bacterial (S. aureus) biofilm and fungal biofilm (C. albicans); experiment: Biofilm disruption assay, bacterial and fungal taken together; format: cell-based
Procedure: as §1, §2, §3, §4
as §5, with “plate.” for “plate. The plate was further incubated for 24 hours at 37° C. without shaking. Media was aspirated and the biofilm was measured by optical density at 600 nm. Twelve replicates were performed for each tested condition and the reported values are normalized to the control (TSB-G media only).”

bacterial biofilm = experiment: In vitro testing on bacterial biofilm (inhibition and/or disruption); format: cell-based; conditions: in vitro testing
fungal biofilm = experiment: In vitro testing on fungal biofilm (inhibition and/or disruption); format: cell-based; conditions: in vitro testing
Procedure: as §1, §2, §3, §4

[7] = system: bacterial and fungal biofilm; experiment: In vitro testing on bacterial and fungal biofilm (assay not told apart); format: cell-based; conditions: for ideal concentration for antibiofilm effect: in the absence of glycerol on in vitro testing; for effect on bacterial and fungal biofilm (in words): in vitro testing; for concentration of maximum (ideal) antibiofilm effect: tested on its own, without glycerol
Procedure: as §1, §2, §3, §4
as §5, with “plate.” for “plate. The plate was further incubated for 24 hours at 37° C. without shaking. Media was aspirated and the biofilm was measured by optical density at 600 nm. Twelve replicates were performed for each tested condition and the reported values are normalized to the control (TSB-G media only).”

[8] = Table F, in the presence of a sufficient concentration of glycerol
[9] = Table D, bacterial and fungal biofilm

SMILES: N[C@@H](CCC(=O)O)C(=O)O [Glutamic Acid, L-glutamic acid]
- Reduce or Inhibit F Biofilm (squares: Inhibition Biofilm Assay) ([1]; Table D, 0.1 to 5.0%): ▪▪ (Two squares [ie. ▪▪] signifies a major effect (greater than about 50%), on the Inhibition Biofilm Assay)
- Reduce or Inhibit F Biofilm (squares: Inhibition Biofilm Assay) [1, 8]: ▪▪ (Two squares [ie. ▪▪] signifies a major effect (greater than about 50%), on the Inhibition Biofilm Assay)
- Reduce or Inhibit F Biofilm (dots: Disruption Biofilm Assay) ([2]; Table D, 0.1 to 5.0%): ●● (Two dots [ie. ●●] signifies a major effect (greater than about 50%), on the Disruption Biofilm Assay)
- Reduce or Inhibit F Biofilm (dots: Disruption Biofilm Assay) [2, 8]: ●● (Two dots [ie. ●●] signifies a major effect (greater than about 50%), on the Disruption Biofilm Assay)
- Reduce or Inhibit B Biofilm (squares: Inhibition Biofilm Assay) ([3]; Table D, 0.1 to 5.0%): ▪▪ (Two squares [ie. ▪▪] signifies a major effect (greater than about 50%), on the Inhibition Biofilm Assay)
- Reduce or Inhibit B Biofilm (squares: Inhibition Biofilm Assay) [3, 8]: ▪▪ (Two squares [ie. ▪▪] signifies a major effect (greater than about 50%), on the Inhibition Biofilm Assay)
- Reduce or Inhibit B Biofilm (dots: Disruption Biofilm Assay) ([4]; Table D, 0.1 to 5.0%): ●● (Two dots [ie. ●●] signifies a major effect (greater than about 50%), on the Disruption Biofilm Assay)
- Reduce or Inhibit B Biofilm (dots: Disruption Biofilm Assay) [4, 8]: ●● (Two dots [ie. ●●] signifies a major effect (greater than about 50%), on the Disruption Biofilm Assay)
- Reduce Both (squares: Inhibition Biofilm Assay) [5, 9]: ▪▪ (Two squares [ie. ▪▪] signifies a major effect (greater than about 50%), on the Inhibition Biofilm Assay)
- Reduce Both (squares: Inhibition Biofilm Assay) [5, 8]: ▪▪ (Two squares [ie. ▪▪] signifies a major effect (greater than about 50%), on the Inhibition Biofilm Assay)
- Reduce Both (dots: Disruption Biofilm Assay) [6, 9]: ●● (Two dots [ie. ●●] signifies a major effect (greater than about 50%), on the Disruption Biofilm Assay)
- Reduce Both (dots: Disruption Biofilm Assay) [6, 8]: ●● (Two dots [ie. ●●] signifies a major effect (greater than about 50%), on the Disruption Biofilm Assay)
- effect on bacterial biofilm (in words) (bacterial biofilm): antibacterial biofilm effect
- effect on fungal biofilm (in words) (fungal biofilm): antifungal biofilm effects
- ideal concentration for antibiofilm effect [7]: 0.5 g %
- effect on bacterial and fungal biofilm (in words) [7]: very active against both bacterial and fungal biofilm
- effect on bacterial and fungal biofilm (in words) ([7]; listed as Glutamic acid): strong effect on biofilm-forming bacteria and fungi in reducing biofilm formation
- concentration of maximum (ideal) antibiofilm effect [7]: 0.5%

SMILES: N[C@@H](CC(=O)O)C(=O)O [Aspartic Acid, L-aspartic acid]
- Reduce or Inhibit F Biofilm (squares: Inhibition Biofilm Assay) ([1]; Table D, 0.1 to 5.0%): ▪▪ (Two squares [ie. ▪▪] signifies a major effect (greater than about 50%), on the Inhibition Biofilm Assay)
- Reduce or Inhibit F Biofilm (squares: Inhibition Biofilm Assay) [1, 8]: ▪▪ (Two squares [ie. ▪▪] signifies a major effect (greater than about 50%), on the Inhibition Biofilm Assay)
- Reduce or Inhibit F Biofilm (dots: Disruption Biofilm Assay) ([2]; Table D, 0.1 to 5.0%): ●● (Two dots [ie. ●●] signifies a major effect (greater than about 50%), on the Disruption Biofilm Assay)
- Reduce or Inhibit F Biofilm (dots: Disruption Biofilm Assay) [2, 8]: ●● (Two dots [ie. ●●] signifies a major effect (greater than about 50%), on the Disruption Biofilm Assay)
- Reduce or Inhibit B Biofilm (squares: Inhibition Biofilm Assay) ([3]; Table D, 0.1 to 5.0%): ▪▪ (Two squares [ie. ▪▪] signifies a major effect (greater than about 50%), on the Inhibition Biofilm Assay)
- Reduce or Inhibit B Biofilm (squares: Inhibition Biofilm Assay) [3, 8]: ▪▪ (Two squares [ie. ▪▪] signifies a major effect (greater than about 50%), on the Inhibition Biofilm Assay)
- Reduce or Inhibit B Biofilm (dots: Disruption Biofilm Assay) ([4]; Table D, 0.1 to 5.0%): ●● (Two dots [ie. ●●] signifies a major effect (greater than about 50%), on the Disruption Biofilm Assay)
- Reduce or Inhibit B Biofilm (dots: Disruption Biofilm Assay) [4, 8]: ●● (Two dots [ie. ●●] signifies a major effect (greater than about 50%), on the Disruption Biofilm Assay)
- Reduce Both (squares: Inhibition Biofilm Assay) [5, 9]: ▪▪ (Two squares [ie. ▪▪] signifies a major effect (greater than about 50%), on the Inhibition Biofilm Assay)
- Reduce Both (squares: Inhibition Biofilm Assay) [5, 8]: ▪▪ (Two squares [ie. ▪▪] signifies a major effect (greater than about 50%), on the Inhibition Biofilm Assay)
- Reduce Both (dots: Disruption Biofilm Assay) [6, 9]: ●● (Two dots [ie. ●●] signifies a major effect (greater than about 50%), on the Disruption Biofilm Assay)
- Reduce Both (dots: Disruption Biofilm Assay) [6, 8]: ●● (Two dots [ie. ●●] signifies a major effect (greater than about 50%), on the Disruption Biofilm Assay)
- effect on bacterial biofilm (in words) (bacterial biofilm): antibacterial biofilm effect
- effect on fungal biofilm (in words) (fungal biofilm): antifungal biofilm effects
- ideal concentration for antibiofilm effect [7]: 0.5 g %
- effect on bacterial and fungal biofilm (in words) [7]: very active against both bacterial and fungal biofilm
- effect on bacterial and fungal biofilm (in words) ([7]; listed as Aspartic acid): strong effect on biofilm-forming bacteria and fungi in reducing biofilm formation
- concentration of maximum (ideal) antibiofilm effect [7]: 0.5%
